# In US5496856A, “Aspartame for its application as a therapeutically active substance” (priority 1993, dated 1996):
# Entries after “also recorded” stand apart in the source; their conditions may differ. Peptide text beside a SMILES is read from it.
# Assays:
# [1] = tested on: renal cells; assay: Entry of ochratoxin into renal cells; conditions: ochratoxin A with aspartame
# [2] = tested on: human plasma proteins; assay: OTA binding to human plasma proteins, condition (ii): OTA with or without aspartame in lower compartment; format: in vitro ADME
# Procedure: (§1) A further study was performed in order to determine the effect of aspartame on OTA binding on human plasma proteins in vitro.
# (§2) An in-vitro study was performed on plasma samples obtained from healthy human volunteers, from a French blood bank (Centre de transfusion sanguine in Bordeaux), using citrate as anticoagulant. Blood samples were centrifuged at 1800 g for 30 minutes. This pooled human plasma contained 41±3 g of proteins per liter.
# (§3) Static diffusion cells (polypropylene, homemade according to the model provided by Nalgene, USA) containing two compartments (upper and lower) separated by a dialysing membrane having a 10 000 D exclusion limit (Sigma Chemical, USA) were used. This membrane allows OTA and aspartame diffusion and not protein diffusion.
# (§4) A human plasma sample was placed in the upper compartment and a medium (RPMI 1640, Sigma chemical, USA) in the lower one.
# (§5) The plasma binding properties of OTA were evaluated under two different conditions:
# (ii) The upper compartment contained human plasma proteins only and OTA (20, 100 and 500 μg/ml) was added into the lower compartment alone or concommitantly with 10 μg/ml aspartame.
# (§6) OTA concentration in the upper compartment was determined by HPLC (Mobile phase: methanol, acetonitrile, acetic acid, sodium acetate 5 mM (300: 300: 400: 14 v/v/v/v); injection volume 50 μl; flow rate 1 ml/min; run time for one cycle: 10 min and fluorescence detection (excitation at 340 nm and emission at 465 nm).
# (§7) Before extraction of OTA from the plasma, all the studied samples of plasma, which had already fixed OTA, were dialysed against free OTA RPMI medium for at least 15 minutes, one or several times, until no more OTA was found in the lower compartment.
# (§8) The results obtained under condition (i) as defined hereinabove are reported in Table I, whereas the results obtained under condition (ii) are reported in Table II.
# Under condition (ii) (Table II), the aspartame was put in the same compartment as OTA in the non-plasmatic compartment to mimic the stomach (the ration OTA/aspartame=1.5 to 36).
# [3] = tested on: human plasma proteins; assay: OTA binding to human plasma proteins, condition (i): aspartame in upper (plasma) compartment; format: in vitro ADME
# Procedure: as §1, §2, §3, §4, §5
# (i) The aspartame at a concentration of 10 μg/ml was added in the upper compartment containing human plasma proteins before introducing OTA at three different concentrations (20, 100, and 500 μg/ml) in the lower compartment;
# as §6, §7, §8
# [4] = Urine proteins in rats treated with ochratoxin A; format: in vivo; conditions: aspartame 25 mg/kg + ochratoxin A 289 μg/kg, 3 weeks
# Procedure: (§9) The animals used in this experiment are male rats of the Wistar strain weighing 160±10 g.
# (§10) The aspartame is administered by gavage, at the same time as the ochratoxin A, every 48 hours for 3 weeks.
# (§11) Group I: control rats (blanks)
# (§12) Group II: control rats treated with 0.1 M NaHCO3, pH 7.4
# (§13) Group III: rats treated with ochratoxin A (289 μg/kg)
# (§14) Group IV: rats treated with ochratoxin A (289 μg/kg)+aspartame (25 mg/kg).
# (§15) The control and treated rats are placed in a metabolic cage for 24 hours for urine sampling and then sacrificed.
# [5] = tested on: DNA; assay: DNA adducts by postlabeling with ATP gamma 32P in organs (genotoxicity); format: in vivo, rats
# Procedure: as §9, §10, §15
# The organs of the same animals were used for extraction of the DNA, which was analyzed by the technique of postlabeling with ATP gamma 32P in order to evaluate the genotoxicity by the presence of adducts with DNA bases.
# [6] = tested on: glomerular filtration; conditions: mice
# Procedure: Male mice of the Swiss strain weighing 32±2 g are distributed into cages in groups of 5. The animals are classified in order of increasing weight and distributed randomly into 4 groups of 5 mice (homogeneous distribution by randomization).
# An amount of ochratoxin A corresponding to 289 μg/kg of body weight is given to the mice via an esophageal tube every 48 h for one week; the toxin is dissolved in 0.3 ml of 0.1M NaHCO3, pH 7.4.
# 0.3 ml of 0.1 M NaHCO3, pH 7.4, is given in the same way to the mice used as controls.
# 4 groups of 5 mice were studied.
# Group I: control mice treated with 0.1 M NaHCO3, pH 7.4
# Group II: mice treated with ochratoxin A (289 μg/kg)
# Group III: mice treated with ochratoxin A (289 μg/kg)+aspartame (30 mg/kg)
# Group IV: control mice treated with aspartame only.
# The aspartame is administered in 0.3 ml of H2 O one hour after the last administration of ochratoxin A.
# The mice are placed in a metabolic cage for 15 hours and then sacrificed.
# The creatinine is assayed in the 15-hour urine and serum.
# [7] = tested on: glomerular filtration; assay: Serum and urine creatinine in ochratoxin A-treated rats; format: in vivo, male rats of the Wistar strain
# Procedure: The animals used in this experiment are male rats of the Wistar strain weighing 160±10 g. The animals are classified in order of increasing weight and distributed randomly into 4 groups of 6 rats (homogeneous distribution by randomization).
# An amount of ochratoxin A corresponding to 289 μg/kg of body weight is given to the rats by gavage every 48 hours for 3 weeks; the toxin is dissolved in 0.3 ml of a 0.1 M solution of NaHCO3, pH 7.4.
# [8] = Toxic oxidative effects of ochratoxin A in vivo and in vitro
# [9] = tested on: tubular cells; assay: Urinary renal enzyme activities (LAP, PAL, LDH, γ-GT) in rats treated with ochratoxin A; format: in vivo; conditions: aspartame 25 mg/kg + ochratoxin A 289 μg/kg, 3 weeks
# Procedure: as §9, §10, §11, §12, §13, §14, §15
# [10] = Serum and urine assays of ochratoxin (urinary elimination); format: in vivo, rats
# Procedure: as §9, §10, §11, §12, §13, §14, §15
# [11] = Plasma concentration of aspartame after oral administration; format: in vivo; conditions: within 24h, per os
# [12] = OTA 20 μg/ml, 30 min, aspartame 10 μg/ml
# [13] = OTA 20 μg/ml, 60 min, aspartame 10 μg/ml
# [14] = OTA 20 μg/ml, 120 min, aspartame 10 μg/ml
# [15] = OTA 100 μg/ml, 30 min, aspartame 10 μg/ml
# [16] = OTA 100 μg/ml, 60 min, aspartame 10 μg/ml
# [17] = OTA 100 μg/ml, 120 min, aspartame 10 μg/ml
# [18] = OTA 500 μg/ml, 30 min, aspartame 10 μg/ml
# [19] = OTA 500 μg/ml, 60 min, aspartame 10 μg/ml
# [20] = OTA 500 μg/ml, 120 min, aspartame 10 μg/ml
# [21] = aspartame 30 mg/kg one hour after last ochratoxin A
# [22] = rats, aspartame 25 mg/kg + ochratoxin A 289 μg/kg every 48 h, 3 weeks, gavage
smiles,measurement,setting,value
"COC(=O)[C@H](Cc1ccccc1)NC(=O)[C@@H](N)CC(=O)O [Aspartame, methyl ester of L-aspartyl- L-phenylalanine] (H-Asp-Phe-OMe)",concentration/entry of ochratoxin in renal cells,[1],limiting the entry of ochratoxin into these cells; also recorded: reducing the concentration of ochratoxin in the renal cells
same,"Quantities of OTA bound to plasma proteins, OTA + Aspartame (Table II)",[2]; [12],159 ± 13 ng/mL
same,"Quantities of OTA bound to plasma proteins, OTA + Aspartame (Table II)",[2]; [13],53 ± 6 ng/mL
same,"Quantities of OTA bound to plasma proteins, OTA + Aspartame (Table II)",[2]; [14],39 ± 4 ng/mL
same,"Quantities of OTA bound to plasma proteins, OTA + Aspartame (Table II)",[2]; [15],245 ± 15 ng/mL
same,"Quantities of OTA bound to plasma proteins, OTA + Aspartame (Table II)",[2]; [16],459 ± 27 ng/mL
same,"Quantities of OTA bound to plasma proteins, OTA + Aspartame (Table II)",[2]; [17],587 ± 38 ng/mL
same,"Quantities of OTA bound to plasma proteins, OTA + Aspartame (Table II)",[2]; [18],516 ± 19 ng/mL
same,"Quantities of OTA bound to plasma proteins, OTA + Aspartame (Table II)",[2]; [19],1127 ± 89 ng/mL
same,"Quantities of OTA bound to plasma proteins, OTA + Aspartame (Table II)",[2]; [20],1789 ± 56 ng/mL
same,efficiency in preventing the binding of OTA on human plasma proteins,"[2]; OTA in lower compartment (stomach), OTA as high as 20 μg/ml",more than 95%
same,prevention of the binding of OTA,"[2]; Table II, OTA 100 μg/ml, aspartame 10 μg/ml",50%
same,efficiency in preventing OTA binding (in words),"[2]; Table II, OTA 500 μg/ml, aspartame 10 μg/ml",no longer efficient
same,"Quantities of OTA bound to plasma proteins, OTA + Aspartame (Table I)",[3]; [12],157 ± 12 ng/mL
same,"Quantities of OTA bound to plasma proteins, OTA + Aspartame (Table I)",[3]; [13],97 ± 4 ng/mL
same,"Quantities of OTA bound to plasma proteins, OTA + Aspartame (Table I)",[3]; [14],15 ± 3 ng/mL
same,"Quantities of OTA bound to plasma proteins, OTA + Aspartame (Table I)",[3]; [15],193 ± 17 ng/mL
same,"Quantities of OTA bound to plasma proteins, OTA + Aspartame (Table I)",[3]; [16],74 ± 11 ng/mL
same,"Quantities of OTA bound to plasma proteins, OTA + Aspartame (Table I)",[3]; [17],55 ± 15 ng/mL
same,OTA available that is bound as compared to control without aspartame,"[3]; OTA 100 μg/ml, aspartame 10 μg/ml",4.5%
same,"Quantities of OTA bound to plasma proteins, OTA + Aspartame (Table I)",[3]; [18],275 ± 41 ng/mL
same,"Quantities of OTA bound to plasma proteins, OTA + Aspartame (Table I)",[3]; [19],296 ± 45 ng/mL
same,"Quantities of OTA bound to plasma proteins, OTA + Aspartame (Table I)",[3]; [20],345 ± 51 ng/mL
same,OTA available that is bound to plasma proteins as compared to control without aspartame,"[3]; OTA 500 μg/ml, aspartame 10 μg/ml",19.8%
same,dependence of efficiency in preventing OTA binding on OTA concentration,[3]; OTA 20 to 500 μg/ml,inversely proportional to the concentrations of OTA
same,OTA available that is bound as compared to the control without aspartame,"[3]; Table I, OTA 20 μg/ml, aspartame 10 μg/ml",2%
same,efficiency in preventing the binding of OTA on human plasma proteins,"[3]; Table I, OTA concentrations as high as 20 μg/ml, aspartame 10 μg/ml",about 98%
same,OTA bound (in words),"[3]; aspartame 10 μg/ml, i.e. 10 mg/l",practically no OTA bound
same,efficiency in preventing the OTA binding on human plasma proteins (conclusion),"[3]; normal conditions, OTA concentrations lower than 20 μg/ml",at least 95%
same,effect on the ochratoxin-induced increase in the level of urine proteins,[4],"reduces the increase, induced by ochratoxin, in the level of urine proteins"
same,"DNA adducts in organs, aspartame and OTA","[5]; aspartame 25 mg/kg + OTA 289 μg/kg, 3 weeks",virtually complete disappearance of the DNA adducts; also recorded: comparable to those of the controls
same,nephrotoxic and genotoxic effects (overall conclusion),[5]; results of the experiments performed,suppresses not only the nephrotoxic effects but also the genotoxic effects
same,effect on the increase in serum creatinine,[6]; [21],very markedly reduces the increase in serum creatinine
same,effect on urine creatinine,[6]; [21],"increases the level of urine creatinine, which is similar to the control values"
same,effects on serum creatinine and serum creatinine/urine creatinine ratio (glomerular filtration),[6]; aspartame 30 mg/kg with ochratoxin A 289 μg/kg,beneficial
same,level of serum creatinine,[7]; [22],significant reduction in the level of serum creatinine
same,level of urine creatinine,[7]; [22],"parallel increase in the level of urine creatinine, which is comparable to the control level"
same,tubular and glomerular attacks caused by ochratoxin,[7]; summary statement,protects the kidney from the tubular and glomerular attacks caused by ochratoxin
same,effect on toxic oxidative effects of ochratoxin A,[8],opposes the toxic oxidative effects of ochratoxin A in vivo and in vitro
same,effect on the increase in urinary enzymic activities caused by ochratoxin A,[9],appreciably reduces the increase in the enzymic activities caused by ochratoxin A
same,urinary enzymic activities vs controls,[9],not being significantly different from those of the controls
same,urinary elimination of ochratoxin,"[10]; serum and urine assays, rats, aspartame 25 mg/kg + ochratoxin A, 3 weeks",very substantially favors urinary elimination of the ochratoxin A; also recorded: significantly increases the urinary elimination of ochratoxin
same,effect on metabolism and elimination of ochratoxin A,[10]; summary statement,slow down the metabolism and accelerate the elimination of ochratoxin A
same,oral dose of aspartame giving plasma concentration of 10 mg/l,[11],400 to 600 mg
